Numbers after ± are expanded uncertainties.
Conditions: for mass density: 101.33 kPa, Liquid, Levitation methods

Q: Which mass density (1350 K) does the source give for `[Ti]` [titanium] here?
A: The mass density was 4235 ± 40 kg/m3.

Q: What about the mass density (1400 K) of the same compound?
A: The mass density was 4223 ± 40 kg/m3.

Q: And the mass density (1450 K)?
A: Its mass density is 4211 ± 40 kg/m3.

Q: What about the mass density (1500 K) of the same compound?
A: Its mass density is 4200 ± 40 kg/m3.

Q: And the mass density (1550 K)?
A: The mass density was 4188 ± 40 kg/m3.

Q: What about the mass density (1600 K) of the same compound?
A: Its mass density is 4176 ± 40 kg/m3.

Q: And the mass density (1650 K)?
A: The mass density was 4164 ± 40 kg/m3.

Q: What about the mass density (1668 K) of the same compound?
A: The mass density was 4160 ± 40 kg/m3.

Q: And the mass density (1700 K)?
A: Its mass density is 4152 ± 40 kg/m3.

Q: What about the Normal melting temperature (Crystal, Heating curve in electrostatic levitation apparatus) of the same compound?
A: The Normal melting temperature was 1668.1 ± 2 °C.

— the NIST ThermoML archive (doi:10.1016/j.jct.2013.03.012)
